Source: publication PMC12670405, “Second-Generation AURKA-Targeting PROTACs: Structural Optimization toward in Vivo Degradation in Neuroblastoma” (Journal of Medicinal Chemistry, 2025)
Like-named read-outs stand apart in the source and are kept apart here.

Assays:
NGP = assay: IncuCyte live-cell imaging, antiproliferative effect; type: cell-based; details: Homo sapiens, 72 h
From the text: Human neuroblastoma cell lines NGP, IMR-32, SJNB-8, SK-N-BE(2)-C, SJNB-1, SK-N-SH and SK-N-AS, as well as benign immortalized cell lines RPE and HEK293T were either bought commercially or obtained through research laboratories. […] Screening for mycoplasma contamination occurred routinely on the cells. Human neuroblastoma cell lines SH-SY5Y_shABCB1 & SH-SY5Y_shNTC were generated by transduction with pLKO.1-ABCB1_TRCN0000059683 shRNA (Sigma MISSION SHCLND) or pLKO.1-puro NT shRNA (Sigma MISSION SHC002) vectors respectively (Supplementary Table S6), packaged using Lenti-X293T (Clontech). Transduced cells were selected with 2 μg/mL puromycin. These cells were cultured in DMEM 4.5 g/L D-Glucose, L-Glutamine and 110 mg/L Sodium Pyruvate (Gibco, #11995065) supplemented with 10% fetal bovine serum, 1× Antibiotic-Antimycotic solution (Sigma-Aldrich, #A5955) and 1× MEM nonessential amino acids (Sigma-Aldrich, #M7145). Incubation of all cells occurred at 37 °C and 5% CO2.
Neuroblastoma cells were seeded in 384-well plates at different densities ranging from 1200 to 5000 cells/well and allowed to adhere overnight. RPE and HEK293T were seeded at 200 and 600 cells/well, respectively. Compound treatment was performed using the D300e Digital Dispenser (Tecan) in duplicate or triplicate and cell confluency was monitored over time using the IncuCyte Live-cell imaging system (Sartorius). […] Mean normalized confluences were calculated from 3 individual experiments.
All dose–response curves were computed on GraphPad Prism using the Variable Slope (four parameters) equation. Absolute half-maximal degradation (DC50), growth inhibitory (GI50) and enzymatic inhibitory (IC50) concentrations, as well as inhibition constants (Ki) were derived from dose–response curves via interpolation. Statistical tests were performed on GraphPad Prism and detailed in the figure legends. Unless otherwise stated, “n” in the figure legends indicates the number of independent experiments conducted at different times.

Plasma stability assay = type: in vitro ADME, CD-1 mouse; details: for half-life at 1 μM: read-out: plasma t1/2
Protocol: (§1) Plasma and metabolic stability tests were performed by Eurofins Discovery. For the plasma stability assay, test compounds were incubated in CD-1 mouse plasma for 0, 0.5, 1, 1.5, and 2 h at 37 °C at a concentration of 1 μM. For the metabolic stability assay, test compounds were incubated at 37 °C in either (1) CD-1 mouse liver microsomes (MLM) (0.1 mg/mL) at a concentration of 0.1 μM for 0, 15, 30, 45, and 60 min or (2) CD-1 mouse hepatocytes (MH) (0.7 million viable cells/mL) at a concentration of 1 μM for 0, 0.5, 1, 1.5, and 2 h. At the respective time points, acetonitrile was added to the incubation mixture followed by centrifugation. Samples were analyzed by HPLC-MS/MS and peak areas were recorded for each analyte. Compound stability, expressed as the percentage of parent compound remaining, was calculated by comparing the peak area of the compound at each time point relative to that of the 0h time point. Percentage compound remaining is plotted as a function of time as a logarithmic curve. Half-life (t 1/2) is estimated from the slope of the initial linear range of the curve, assuming first-order kinetics. […] Both plasma and metabolic assay experiments were performed once with 2 replicate samples each.

[1] = Metabolic stability in mouse liver microsomes (MLM); type: in vitro ADME, CD-1 mouse; details: CD-1
Protocol: as §1

[2] = Metabolic stability in mouse hepatocytes (MH); type: in vitro ADME, CD-1 mouse; details: CD-1
Protocol: as §1

AURKA = biological target: T1, AURKA (Homo sapiens, UniProt O14965); assay: AURKA degradation, Simple Western; type: cell-based; design: Representative Western blot showing levels of endogenous proteins MDR1, MYCN, AURKA, and CRBN in untreated cell lines; endogenous in cells; host or cells: NGP, IMR-32, SJNB-8, SK-N-BE(2)-C, SK-N-SH, SK-N-AS, SJNB-1, RPE, HEK293T; details: for pDC50: AURKA degradation; for DC50: read-out: AURKA DC50;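 as to AURKA Degradation 24h @1000nM: measured in NGP neuroblastoma cells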;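 as to AURKA Degradation 24h @100nM: measured in NGP neuroblastoma cells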
T1 sequence (O14965 1-403): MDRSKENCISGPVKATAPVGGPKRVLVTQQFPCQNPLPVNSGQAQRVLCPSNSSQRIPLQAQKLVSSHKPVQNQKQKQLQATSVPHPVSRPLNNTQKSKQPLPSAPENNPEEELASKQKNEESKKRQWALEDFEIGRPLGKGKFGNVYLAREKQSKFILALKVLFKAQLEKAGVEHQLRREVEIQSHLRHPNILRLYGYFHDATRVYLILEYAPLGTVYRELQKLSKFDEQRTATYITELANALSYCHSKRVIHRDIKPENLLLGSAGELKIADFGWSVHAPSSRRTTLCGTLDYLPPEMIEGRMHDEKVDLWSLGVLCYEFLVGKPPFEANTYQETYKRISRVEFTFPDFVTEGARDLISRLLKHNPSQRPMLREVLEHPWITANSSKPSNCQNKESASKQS
Protocol: Cells were seeded in T-25 flasks at different densities ranging from 1 to 2 million cells per flask and allowed to adhere for 1–2 days. In experiments involving compound treatment, this was done by medium replacement containing the compound(s) of interest in their corresponding concentrations. In competition binding experiments, cells were first pretreated with an excess of MK-5108, thalidomide or MG-132 for 1 h by shaking gently at room temperature prior to addition of SK4454 or SK5527. All samples were normalized to contain the same percentage of DMSO as the negative DMSO controls. Cells were harvested on ice at their respective time points by scraping, washed with ice-cold PBS to collect remaining cells, and centrifuged (2500 rpm, 4 °C). A second washing and centrifugation step was performed prior to collection of the final cell pellets which were then snap-frozen in liquid nitrogen and kept frozen at −80 °C until further processing. Lysis of cell pellets occurred in cold RIPA buffer (0.5% w/v Sodium Deoxycholate, 150 mM NaCl, 50 mM TrisHCl pH 7.5, 0.1% w/v SDS, 1% w/v NP-40) supplemented with protease and phosphatase inhibitors (Roche, #11836145001, #04906845001) by rotating gently at 4 °C for 1h, followed by a centrifugation step for 10 min (10,000 rpm, 4 °C). The supernatant was collected and concentrations of the obtained protein lysates were measured using the Pierce BCA Protein Assay Kit (Thermo Fisher Scientific, #23227).
Simple Western analyses were performed with the Wes instrument (Bio-Techne) using the 12–230 kDa Wes Separation module and the EZ standard pack reagent 1 (Biotechne, #SM-W001, #PS-ST01EZ-8) following the manufacturer’s protocol. Protein lysates were loaded at 0.8 μg/μL under denaturing conditions (0.2 μg/μL for MYCN detection). Chemiluminescence peaks were generated by the Compass Software (Bio-Techne) and the area under the peaks calculated using the Gaussian fit method. Per lane, quantified data were always normalized to that of the loading control (Vinculin) prior to calculating fold changes relative to the negative DMSO control. Mean fold changes are calculated from 3 individual experiments. A list of the primary and secondary antibodies used can be found in the Supporting Information (Supplementary Table S7).
Graphs were generated using GraphPad Prism Software (version 10.1.2) or RStudio (R-4.3.2). All dose–response curves were computed on GraphPad Prism using the Variable Slope (four parameters) equation. Absolute half-maximal degradation (DC50), growth inhibitory (GI50) and enzymatic inhibitory (IC50) concentrations, as well as inhibition constants (Ki) were derived from dose–response curves via interpolation. Statistical tests were performed on GraphPad Prism and detailed in the figure legends. Unless otherwise stated, “n” in the figure legends indicates the number of independent experiments conducted at different times.

## O=C1CCN(c2ccc(C3CCN(C4CN(C(=O)[C@]5(Cc6cccc(Nc7nccs7)n6)CC[C@@H](Oc6cccc(Cl)c6F)CC5)C4)CC3)nc2)C(=O)N1 [PROTAC 28]
NGP; read-out: GI50 72h, 72h
  GI50: 48 nM
NGP; read-out: pGI50 (converted)
  GI50: 47.9 nM
Plasma stability assay; CD-1, mouse, plasma
  half-life at 1 μM: > 2 h
[1]
  microsomal CLint at 0.1 μM: 367 µL/min/mg
[2]
  hepatocyte CLint at 1 μM: 13 µL/min/1e6 cells
AURKA
  AURKA Degradation 24h @100nM: 80
  AURKA Degradation 24h @1000nM: 78
  pDC50: 8,52
  DC50: 3 nM

## O=C1CCC(N2C(=O)c3ccc(OCCOCCNC(=O)[C@]4(Cc5cccc(Nc6nccs6)n5)CC[C@@H](Oc5cccc(Cl)c5F)CC4)cc3C2=O)C(=O)N1 (some centres unmarked) [SK3277, reference compound]
NGP; read-out: GI50 72h, 72h
  GI50: 52 nM
NGP; read-out: pGI50 (converted)
  GI50: 52.5 nM
Plasma stability assay; CD-1 mouse plasma, 1 μM, 37 °C
  half-life at 1 μM: 1.18 h
[1]
  microsomal CLint at 0.1 μM: 1080 µL/min/mg
AURKA
  AURKA Degradation 24h @100nM: 81
  AURKA Degradation 24h @1000nM: 75
  pDC50: 8,15
  DC50: 7 nM
AURKA; NGP, 24 h treatment
  Dmax: 81%

## O=C1CCN(c2ccc(N3CCN(CC4(F)CCN(C(=O)[C@]5(Cc6cccc(Nc7nccs7)n6)CC[C@@H](Oc6cccc(Cl)c6F)CC5)CC4)CC3)nc2)C(=O)N1 [PROTAC 27]
NGP; read-out: GI50 72h, 72h
  GI50: 46 nM
NGP; read-out: pGI50 (converted)
  GI50: 46.8 nM
Plasma stability assay; CD-1, mouse, plasma
  half-life at 1 μM: > 2 h
[1]
  microsomal CLint at 0.1 μM: 1060 µL/min/mg
AURKA
  AURKA Degradation 24h @100nM: 88
  AURKA Degradation 24h @1000nM: 93

## O=C1CCC(N2C(=O)c3cccc(N4CCN(CCOCCOCCNC(=O)[C@]5(Cc6cccc(Nc7nccs7)n6)CC[C@@H](Oc6cccc(Cl)c6F)CC5)CC4)c3C2=O)C(=O)N1 (some centres unmarked) [PROTAC 1]
NGP; read-out: GI50 72h, 72h
  GI50: 63 nM
NGP; read-out: pGI50 (converted)
  GI50: 63.1 nM
Plasma stability assay; CD-1, mouse, plasma
  half-life at 1 μM: > 2 h
[1]
  microsomal CLint at 0.1 μM: 1480 µL/min/mg
AURKA
  AURKA Degradation 24h @100nM: 72
  AURKA Degradation 24h @1000nM: 66

## O=C1CCC(Nc2ccc(N3CCN(C(=O)CNC(=O)[C@]4(Cc5cccc(Nc6nccs6)n5)CC[C@@H](Oc5cccc(Cl)c5F)CC4)CC3)cc2)C(=O)N1 (some centres unmarked) [PROTAC 14]
NGP; read-out: GI50 72h, 72h
  GI50: 46 nM
NGP; read-out: pGI50 (converted)
  GI50: 45.7 nM
Plasma stability assay; CD-1 mouse plasma, 1 μM, 37 °C
  half-life at 1 μM: > 2 h
Plasma stability assay; plasma
  plasma t1/2: > 2 h
[1]
  microsomal CLint at 0.1 μM: 739 µL/min/mg
AURKA
  AURKA Degradation 24h @100nM: 61
  AURKA Degradation 24h @1000nM: 73
  pDC50: 7,36
  DC50: 43.8 nM
AURKA; NGP, 24 h treatment
  AURKA degradation activity (in words): significantly stronger degradation activity
  Dmax: 76%
